This note sets out measurements from article PMC6934184, “Selective DNA-PKcs inhibition extends the therapeutic index of localized radiotherapy and chemotherapy” (The Journal of Clinical Investigation, 2019).

The structures appear in SMILES notation.

This assay has as its target T1, DYRK1B (Homo sapiens, UniProt Q9Y463).
T1 construct: purchased Thermo Fisher Scientific (Life Technologies) SelectScreen
Description: SelectScreen Z'LYTE. It counts as biochemical. An outline of the steps:
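NU5455 was profiled across the SelectScreen Broad panel of kinase activity and binding assays. Z'LYTE reactions such as CSF1R ran at apparent Km ATP, while the Adapta CAMK1 assay used ATP listed as 10. Values are given as percent.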

T1 sequence (Q9Y463 whole entry): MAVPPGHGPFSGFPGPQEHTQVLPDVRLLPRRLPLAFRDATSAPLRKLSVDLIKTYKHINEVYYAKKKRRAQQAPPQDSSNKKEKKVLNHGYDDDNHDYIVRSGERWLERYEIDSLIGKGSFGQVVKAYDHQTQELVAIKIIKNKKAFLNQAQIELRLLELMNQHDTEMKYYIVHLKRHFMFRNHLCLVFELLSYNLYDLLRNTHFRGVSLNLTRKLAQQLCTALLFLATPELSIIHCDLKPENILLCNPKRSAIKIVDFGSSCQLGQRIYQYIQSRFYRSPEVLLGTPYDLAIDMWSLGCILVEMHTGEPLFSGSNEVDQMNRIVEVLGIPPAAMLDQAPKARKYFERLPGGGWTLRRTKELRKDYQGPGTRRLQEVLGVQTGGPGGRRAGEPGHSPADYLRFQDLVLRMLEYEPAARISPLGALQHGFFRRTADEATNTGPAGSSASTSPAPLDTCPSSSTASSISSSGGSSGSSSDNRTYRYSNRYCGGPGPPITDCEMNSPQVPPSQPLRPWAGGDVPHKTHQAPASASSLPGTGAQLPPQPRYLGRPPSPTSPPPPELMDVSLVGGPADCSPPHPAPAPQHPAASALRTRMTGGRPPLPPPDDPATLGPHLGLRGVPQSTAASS

Consider `CN(C(=O)CN1CCOCC1)c1ccc2sc3c(-c4cccc5c(=O)cc(N6CC7CCC(C6)O7)oc45)cccc3c2c1` [NU5455], for which the inhibition – broadly, the drop in the measured response relative to a control, in per cent – at 1 µM is -1.8%.
